# Reference: US7192931B2, “Treatment of demyelinating diseases” (Neuren Pharmaceuticals Ltd., priority 2000, dated 2007)
# What was measured:
# [1] = tested on: N-methyl-D-aspartate (NMDA) receptor; settings: U.S. Pat. No. 5,804,550; cited from earlier work
# [2] = tested on: hippocampus neurons; settings: Saura et al., 1999; cited from earlier work
# [3] = tested on: apoptotic cells in spinal cord of EAE mice; test: In situ detection of apoptotic cells in the CNS by TUNEL assay; type: in vivo, mouse; settings: spinal cord sections, compared to mice mock treated with PBS or rat IgG
# Protocol: Cells undergoing apoptosis were identified using the in situ TUNEL assay. Five-μm thick serial sections of brain and spinal cord were prepared to detect apoptosis by TUNEL (i.e., terminal deoxynucleotidyl transferase-mediated deoxyuridine triphosphate-digoxigenin nick end labeling) staining using the In Situ Apoptosis Detection Kit from Boehringer Mannheim (Germany). Briefly, frozen sections were fixed in 4% paraformaldehyde, permeabilized in 0.1% Triton X-100, incubated with 20 μL TUNEL reagent for 60 minutes at 37° C., and then examined by fluorescence microscopy. Adjacent sections were counterstained with hematoxylin and mounted onto poly-L-lysine coated slides to allow the total number of nucleated cells to be counted. The percentage of apoptotic cells was assessed in ten randomly selected fields viewed at 40× magnification. The apoptotic index (AI) was calculated as follows: AI=number of apoptotic (TUNEL-positive) cells×100/total number of nucleated cells.
# [4] = tested on: NMDA receptor subunit NR1; test: NMDA receptor subunit NR1 expression in spinal cord; type: in vivo, mouse; settings: spinal cord of EAE mice, immunohistochemistry and Western blot
# From the text: Frozen sections from lumbar spinal cord (10 μm) were acetone-fixed and immunostained for oligodendrocyte content with an antibody against CNPase (Sigma; diluted 1:100); for axonal damage with an antibody against non-phosphorylated neurofilament-H (SM 1-32; Stemberger Monoclonals Incorporated, Lutherville, Md., USA; diluted 1:1000), and for GluR2 and NR1 content using mouse mAbs obtained from Zymed Laboratories Inc., Carlton, San Francisco, Calif. Antibody staining was visualized with an avidin:biotinylated enzyme complex (Vector Laboratories, Burlingame, Calif., USA). Sections were viewed under a light microscope, and cells stained with the anti-CNPase and SM 1-32 antibodies were counted.
# PBS-perfused spinal cords were homogenized in lysis buffer (50 mM Tris pH 7.4, 100 μM EDTA, 0.25 M sucrose, 1% sodium dodecyl sulfate [SDS], 1% Nonidet P-40 [NP40], 1 μg/mL leupeptin, 1 μg/mL pepstatin A, and 100 μM phenylmethylsulfonylfluoride) at 4° C. using a motor-driven homogenizer (Virtus, Gardiner, N.Y.). […] Protein concentrations of the supernatants were determined as described (Peterson, 1983), and 100 μg of protein resolved on 10% polyacrylamide SDS-gels under reducing conditions and then electrophoretically transferred to Hybond C Extra nitrocellulose membranes (Amersham Life Science, England). […]
# [5] = tested on: oligodendrocytes; settings: Smith et al., 2000, Pitt et al.; cited from earlier work
# [6] = tested on: EAE; settings: Smith et al., 2000, Pitt et al.; cited from earlier work
Compound,glutamate binding to the NMDA receptor [1],neuronal death in the hippocampus injured by NMDA [2],reductions in the numbers of apoptotic cells [3],NMDA receptor (NR1 subunit) expression [4],excitotoxic effects of glutamate on oligodendrocytes [5],pathogenesis of EAE [6]
Gly-Pro-Glu [GPE],inhibits glutamate binding,prevents neuronal death,~30%,not effective,–,–
"NS(=O)(=O)c1cccc2c1c([N+](=O)[O-])cc1nc(O)c(O)nc12 [NBQX, 2,3-dihydroxy-6-nitro-7-sulfamoylbenzo(f)quinoxaline]",–,–,~30%,caused down-regulation of the NMDA receptor,inhibits the excitotoxic effects of glutamate on oligodendrocytes,slightly ameliorates the pathogenesis of EAE
